Experimental data published in article PMC5104769, “Concentration-Dependent Dual Mode of Zn Action at Serotonin 5-HT1A Receptors: In Vitro and In Vivo Studies” (Molecular neurobiology, 2015).

Key:
Sprague Dawley rats [1] = assay: Lower lip retraction (LLR) in rats; type: in vivo, rat; details: for induction of LLR (in words): given alone: 8-OH-DPAT 1 mg/kg, Zn 2 and 5 mg/kg, WAY-100635 0.1 mg/kg
Procedure: The experiments were performed on male Albino Swiss mice (23-25 g) and Sprague Dawley rats (200-250 g) from Charles River, Germany as well as […]-flx-YFP mice from Jackson Labs, Bangor ME and the Hen lab, respectively. The animals were kept under standard laboratory conditions with respect to lighting (light phase 7:00-19:00) and temperature (19-21 °C). Food and water were freely available. Each experimental group consisted of eight to ten animals. All of the animals were experimentally naive and were used only once in each test. The experiments were performed during the light period (9:00-14:00 h). All of the procedures were conducted according to the guidelines of the National Institutes of Health Animal Care and Use Committee and were approved by the Ethics Committees of the Institute of Pharmacology, Polish Academy of Sciences in Krakow and the Animal Care Committee, University of Ottawa. […] Controls were treated with the appropriate diluent, which was indicated as VEH on the graphs and in the tables. LLR was assessed according to the method described by Berendsen et al., [20]. The rats were individually placed in cages (30×25×25 cm) and were scored three times, 15, 30 and 45 min after the administration of Zn as follows: 0=lower incisors not visible, 0.5=partly visible and 1=completely visible. Zn was administered at doses of 2 and 5 mg Zn/kg (given as Zn hydroaspartate, Farmapol, Poland). The maximum total score was 3/rat. In addition, the effects of Zn and WAY-100635 (0.1 mg/kg; […] Sigma) were tested.

Body temperature in mice = type: in vivo, mouse
Procedure: The experiments were performed on male Albino Swiss mice (23-25 g) and Sprague Dawley rats (200-250 g) from Charles River, Germany as well as […]-flx-YFP mice from Jackson Labs, Bangor ME and the Hen lab, respectively. The animals were kept under standard laboratory conditions with respect to lighting (light phase 7:00-19:00) and temperature (19-21 °C). Food and water were freely available. Each experimental group consisted of eight to ten animals. All of the animals were experimentally naive and were used only once in each test. The experiments were performed during the light period (9:00-14:00 h). All of the procedures were conducted according to the guidelines of the National Institutes of Health Animal Care and Use Committee and were approved by the Ethics Committees of the Institute of Pharmacology, Polish Academy of Sciences in Krakow and the Animal Care Committee, University of Ottawa. […] Controls were treated with the appropriate diluent, which was indicated as VEH on the graphs and in the tables. […] The results were expressed as a change in body temperature with respect to the basal body temperature, which was measured at the beginning of the experiments.

Sprague Dawley rats [2] = assay: Forced swim test (FST) in rats; type: in vivo, rat
Procedure: The test was carried out according to the method described previously [10]. On day one of the experiment, the animals were individually placed in plexiglass cylinders (40 cm in height, 18 cm in diameter), containing 25 cm of water maintained at 24–25 °C for a 15-min habituation period. After the rats were removed from the water, they were again placed in their home cages. On the second day, the rats were again placed in the cylinders, and the total duration of immobility was measured for a 5-min test period. Zn (1 or 2 mg Zn/ kg, given as Zn hydroaspartate) and 8-OH-DPAT (0.1 or 0.3 mg/kg) were administered alone or jointly 30 min before the test. WAY-100635 (0.1 mg/kg) was administered 15 min before the Zn treatment.

Body temperature in rats = type: in vivo, rat; details: 8-OH-DPAT 5 mg/kg, vs saline group
Procedure: The experiments were performed on male Albino Swiss mice (23–25 g) and Sprague Dawley rats (200–250 g) from Charles River, Germany as well as TPH2-Cre-ER^T2 x flx-5-HT1A-flx-YFP mice from Jackson Labs, Bangor ME and the Hen lab, respectively. The animals were kept under standard laboratory conditions with respect to lighting (light phase 7:00–19:00) and temperature (19–21 °C). Food and water were freely available. Each experimental group consisted of eight to ten animals. All of the animals were experimentally naive and were used only once in each test. The experiments were performed during the light period (9:00–14:00 h). All of the procedures were conducted according to the guidelines of the National Institutes of Health Animal Care and Use Committee and were approved by the Ethics Committees of the Institute of Pharmacology, Polish Academy of Sciences in Krakow and the Animal Care Committee, University of Ottawa. […]
The effects of Zn (2, 5, 7.5 and 11.5 mg Zn/kg for rats and 2 and 5 mg/kg for mice, given as a Zn hydroaspartate), 8-OH-DPAT (5 mg/kg) and WAY-100635 (0.1mg/kg) on rectal body temperature were recorded 30 and 60 min after their acute administration. The results were expressed as a change in body temperature with respect to the basal body temperature, which was measured at the beginning of the experiments.

Sprague Dawley rats [3] = assay: 5-HT behavioural syndrome (flat body posture, forepaw treading) in rats; type: in vivo, rat; details: VEH + 8-OH-DPAT 5 mg/kg
Procedure: The experiments were performed on male Albino Swiss mice (23–25 g) and Sprague Dawley rats (200–250 g) from Charles River, Germany as well as TPH2-Cre-ER^T2 x flx-5-HT1A-flx-YFP mice from Jackson Labs, Bangor ME and the Hen lab, respectively. The animals were kept under standard laboratory conditions with respect to lighting (light phase 7:00–19:00) and temperature (19–21 °C). Food and water were freely available. Each experimental group consisted of eight to ten animals. All of the animals were experimentally naive and were used only once in each test. The experiments were performed during the light period (9:00–14:00 h). All of the procedures were conducted according to the guidelines of the National Institutes of Health Animal Care and Use Committee and were approved by the Ethics Committees of the Institute of Pharmacology, Polish Academy of Sciences in Krakow and the Animal Care Committee, University of Ottawa.
Zn (all doses refer to mg Zn/kg) was given as either Zn hydroaspartate (Farmapol, Poland) or Zn chloride (Sigma-Aldrich) and was dissolved in 0.9 % NaCl and administered intraperitoneally (i.p.). 8-OH-DPAT and WAY-100635 were dissolved in aqua pro-injection and were administered subcutaneously (s.c.). Controls were treated with the appropriate diluent, which was indicated as VEH on the graphs and in the tables.
The experiments were conducted according to previously published procedure, with a modification to the ranked intensity scale. Briefly, the rats were individually placed in cages (30×25×25 cm) 5 min before tested compounds were injected. Forepaw treading (FT) and flat body posture (FBP) were scored using a ranked intensity scale, where 0=absent, 1=equivocal and 2=present. The Zn (2, 5, 7.5 and 11.5 mg Zn/kg, given as a Zn hydroaspartate)-induced behavioural syndrome was scored for each animal 3, 6, 9, 12 and 15 min after the Zn treatment. Each observation session lasted for 45 s. The maximum score, which was summed over 5 observation periods, was 10 for each symptom/rat. The effect of Zn on the behavioural syndrome induced by 8-OH-DPAT (5 mg/kg) was scored using the same scale. Zn was administered 60 min before 8-OH-DPAT, and the animals were scored 3, 6, 9, 12 and 15 min after the 8-OH-DPAT treatment.

[4] = biological target: T1, human 5-HT1AR stably expressed in HEK293 cells (Homo sapiens, UniProt P08908); assay: Saturation binding of [3H]-8-OH-DPAT in the absence and presence of Zn; details: saturation binding
T1 construct: The full-length human 5HTR1A complementary DNA (cDNA); membranes prepared from the cells
T1 sequence (P08908 1-422): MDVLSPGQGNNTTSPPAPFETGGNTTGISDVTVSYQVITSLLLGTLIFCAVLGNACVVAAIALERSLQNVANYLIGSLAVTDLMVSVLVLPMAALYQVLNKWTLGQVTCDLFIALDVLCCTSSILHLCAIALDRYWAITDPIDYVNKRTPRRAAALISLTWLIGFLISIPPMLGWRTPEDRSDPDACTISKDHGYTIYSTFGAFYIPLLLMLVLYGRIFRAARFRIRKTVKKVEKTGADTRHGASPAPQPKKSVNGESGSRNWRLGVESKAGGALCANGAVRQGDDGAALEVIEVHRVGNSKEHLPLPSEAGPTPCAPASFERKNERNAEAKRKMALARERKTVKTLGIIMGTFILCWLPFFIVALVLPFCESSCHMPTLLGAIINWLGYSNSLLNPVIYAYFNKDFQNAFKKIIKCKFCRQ
Procedure: The full-length human 5HTR1A complementary DNA (cDNA), which was cloned into the mammalian expression vector pcDNA3.1(+), was obtained from the Missouri S&T cDNA Resource Center (www.cdna.org). The receptor cDNA was stably transfected into human embryonic kidney cells (HEK293, ATCC) with the use of Lipofectamine 2000 (Invitrogen).
Cell pellets were thawed and homogenized in 20 volumes of 50 mM Tris–HCl buffer (pH 7.7) containing 0.1 mM EDTA and 10 mM MgCl2, using an Ultra Turrax tissue homogenizer. The pellets were then centrifuged twice at 35,000g for 20 min at 4 °C, with incubation for 15 min at 37 °C in between centrifugations. Membranes were aliquoted in tubes. Membrane protein concentrations were determined using the Pierce™ Coomassie (Bradford) Protein Assay Kit, with bovine serum albumin (BSA) as a standard.
The incubation buffer consisted of 50 mM Tris–HCl (pH 7.7), 10 mM MgCl2, 10 mM pargyline and 0.1 % ascorbic acid. Radioligand binding assays were performed by incubating 30 μg of protein of the membrane suspension in 96-well microtitre plates for 60 min at room temperature with shaking, in a total volume of 200 μl. The binding reactions were stopped by filtration through GF/C Unifilter plates using a harvester (PerkinElmer). The plate filters were dried, and 20 μl of Ultima Gold MV (PerkinElmer) was added. Radioactivity was measured using a MicroBeta TriLux counter (PerkinElmer).
All experiments were performed in triplicate, and the results were obtained from at least three independent experiments. The data are expressed as the mean±S.D. (standard deviation). The experimental data were analysed using GraphPad Prism 5.1 for Windows (GraphPad Software, San Diego California USA, www.graphpad.com).

SMILES	Mean LLR score (B) 8-OH-DPAT 1 mg/kg (Sprague Dawley rats [1]; VEH pretreatment + 8-OH-DPAT 1 mg/kg)	induction of LLR (in words) (Sprague Dawley rats [1])	change in body temperature (Body temperature in mice; 8-OH-DPAT 5 mg/kg, vs saline group)	immobility time in the FST (Sprague Dawley rats [2]; 8-OH-DPAT 0.1 mg/kg)	immobility time in the FST (Sprague Dawley rats [2]; 8-OH-DPAT 0.3 mg/kg)	change in body temperature (Body temperature in rats)	behavioural score FBP (B) 8-OH-DPAT (Sprague Dawley rats [3])	behavioural score FT (B) 8-OH-DPAT (Sprague Dawley rats [3])	Bmax of [3H]8-OH-DPAT ([4]; Zn2+ 0 μM)	Bmax of [3H]8-OH-DPAT ([4]; Zn2+ 10 μM)	Bmax of [3H]8-OH-DPAT ([4]; Zn2+ 10 μM, listed as [^3H]8-OH-DPAT)	Bmax of [3H]8-OH-DPAT ([4]; Zn2+ 100 μM)	Bmax of [3H]8-OH-DPAT ([4]; Zn2+ 500 μM)	Bmax of [3H]8-OH-DPAT ([4]; Zn2+ 1000 μM)	Mean LLR score (B) 8-OH-DPAT 1 mg/kg (Sprague Dawley rats [1]; WAY 100635 0.1 mg/kg 45 min before 8-OH-DPAT 1 mg/kg)	Mean LLR score (A) VEH (Sprague Dawley rats [1]; WAY 100635 0.1 mg/kg s.c. alone, max score 3/rat)	effect on LLR induced by 8-OH-DPAT (in words) (Sprague Dawley rats [1]; Zn 2 and 5 mg/kg or WAY-100635 0.1 mg/kg before 8-OH-DPAT 1 mg/kg)	effect of pretreatment on Zn-induced decrease in body temperature (Body temperature in mice; WAY-100635 0.1 mg/kg s.c. 15 min before Zn)	effect on Zn-induced decrease in immobility time (Sprague Dawley rats [2]; WAY-100635 0.1 mg/kg 15 min before Zn)	behaviour in the FST (Sprague Dawley rats [2]; WAY-100635 0.1 mg/kg given alone)
CCCN(CCC)C1CCc2cccc(O)c2C1 (stereo not drawn) [8-OH-DPAT, 8-Hydroxy-2-(di-n-propylamino)tetralin, reference compound]	2.25±0.46	induced LLR	significant decrease in body temperature	not 0.1 mg/kg (p>0.05) decreased the immobility time	decreased the immobility time	significant decrease in body temperature	7.83±0.7	7.5±0.6												
CCCN(CCC)C1CCc2cccc(O)c2C1 (stereo not drawn) [[^3H]-8-OH-DPAT]									4.5±0.3 pM/mg prot	5.8±0.7 pM/mg prot	5.8±0.7 pM/mg prot	6.2±2.0 pM/mg prot	4.7±0.7 pM/mg prot	4.0±0.6 pM/mg prot						
COc1ccccc1N1CCN(CCN(C(=O)C2CCCCC2)c2ccccn2)CC1 [WAY-100635, N-[2[4-(2-methoxyphenyl)-1-piperazinyl]ethyl]-N-(2-pyridyl)cyclohexanecarboxamide, reference compound]		did not evoke LLR													0.67±0.76	0.0±0.0	blocked the LLR induced by 8-OH-DPAT	abolished the effect induced by Zn	antagonized the Zn-induced decrease in the immobility time	did not change the behaviour of the animals
